For assay [1], the system named is epidermal keratinocytes. Kind of assay: Monitoring of culture conditions by automatic cell tracking of epidermal keratinocyte colonies. The conditions noted are these: 10 ng/ml EGF added to the medium. The format is cell-based, human. The procedure:
Human epidermal keratinocytes originating in neonate (purchased from KURABO) were cultured under the conditions of 37° C. and 10% CO2 using the mouse 3T3 fibroblasts treated with mitomycin C as feeder cells (refer to the reference for details of the method).
The cultured epidermal keratinocytes were subcultured on a 35-mm glass bottom dish, and time-lapse imaging was performed under the conditions of 37° C. and 10% CO2 in which imaging was automatically performed every 5 minutes with Olympus FV10i.
The automatic tracking system was applied to monitoring of culture conditions of epidermal keratinocytes (obtained and cultured in the same manner as that of Example 1-1).
Behaviors of epidermal keratinocytes under different culture conditions were compared in the same manner as that of Example 1-2. The cell locomotions were compared. Those of the case where the medium was exchanged on the day 4 of the culture (feeding) and the case where the medium was not exchanged (no feeding) were compared. […] In the lower diagrams of FIG. 14, positions of the nuclei at each time point are shown with lines.
In the culture system of the inventors of the present invention, epidermal keratinocytes show a spiral migration pattern in colonies. As clearly seen from FIG. 15, the trajectory lines in 2D images (upper side) and 3D images (lower side) twisted. […]

In assay [2] the test system is epidermal keratinocytes. The following applies: as previously reported [7]; cited from earlier work.

With “epidermal growth factor [EGF, epidermal growth factor (EGF) (Up state, #01-107) added to the culture medium]”, in the assay with epidermal keratinocytes [1], the migration speed entry was “did not change”. Besides, the migration pattern entry in the assay on epidermal keratinocytes [1] (without EGF, spiral migration pattern in colonies) is recorded as “changed”. Besides, in the assay with epidermal keratinocytes [2], the “migration of epidermal keratinocytes” value is “induces migration of epidermal keratinocytes to the outside”.

The values are drawn from US11475578B2, “Method for analyzing behavior of cell, and use thereof” (TEIKYO UNIVERSITY, priority 2018, dated 2022).
